Measurements as given in US9315491B2 (DEVELOPMENT CENTER FOR BIOTECHNOLOGY, priority 2009, dated 2016).

Key:
p-S6K (mTORC1) = experiment: Immunoblotting, PI3K/Akt/mTOR signal transduction, p-S6K; type: cell-based; conditions: Homo sapiens; PC-3 cell
Excerpt: (§1) For immunoblotting experiments, A549 cells were inoculated to the wells of a 6-well culture plate and cultured overnight. […] Proteins were separated by SDS-PAGE electrophoresis and transferred to PVDF membrane. Protein expression was immunobloted by various primary antibodies and detected by Immobilon Western Chemiluminescent HRP Substrate (Millipore). Antibody against Akt, phosphor-Akt (Ser473), phosphor-Akt (Thr308), p70 S6 Kinase, phosphor-p70 S6 Kinase (Thr389), 4E-BP1, and phosphor-4E-BP1 (Thr37/46) were purchased form Cell Signaling Technology.

p-Akt S473 (mTORC2) = experiment: Immunoblotting, PI3K/Akt/mTOR signal transduction, p-Akt S473; type: cell-based; conditions: Homo sapiens; PC-3 cell
Excerpt: as §1

recombinant mTOR = recombinant mTOR (Homo sapiens (Human), UniProt P42345); experiment: mTOR kinase assay (33P incorporation into 4EBP1); type: biochemical; conditions: compound at 10 μM, 10 μM ATP
Method in brief: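 Recombinant human mTOR (50 ng) phosphorylated His-tagged 4EBP1 (300 ng) with 10 μM ATP plus [γ-33P]-ATP in HEPES pH 7.5, MnCl2, EGTA and DTT for 30 min at 30° C. Labelled 4EBP1 was filter-captured and counted. IC50 was derived from eight-point duplicate dilution series.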

PI3K (p110α/p85α) = PI3K (p110α/p85α) (Homo sapiens (Human), UniProt P42336); experiment: PI3K HTRF enzyme assay, p110α/p85α; type: biochemical; conditions: read-out: % inhibition @ 500 nM p110α; compound at 500 nM, 10 μM ATP
Method in brief: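 Recombinant PI3K heterodimers with PIP2 substrate; reactions ran 30 min at room temperature with 10 μM ATP for p110α/p85α and 100 μM ATP for p110β/p85α. After stop, HTRF detection followed 17 h incubation in the dark at room temperature; HTRF ratio used as read-out.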

PI3K (p110β/p85α) = PI3K (p110β/p85α) (Homo sapiens (Human), UniProt P42338); experiment: PI3K HTRF enzyme assay, p110β/p85α; type: biochemical; conditions: read-out: % inhibition @ 500 nM p110β; compound at 500 nM, 100 μM ATP
Method: Recombinant PI3K (p110α/p85α) and PI3K (p110β/p85α) were from Millipore. […] Briefly, the compounds of interest dissolved in 100% DMSO were dispensed in all wells, following which the mixture of PIP2 and enzyme was added. PI3K (p110α/p85α) and PI3K (p110β/p85α) enzyme reactions were initiated in the presence of 10 μM and 100 μM ATP, respectively, and incubated for 30 min at room temperature. STOP solution prepared 2 hours prior to use was added to stop reactions, and mixed well. Detection solution prepared 2 hours prior to use was added, and incubated at room temperature for 17 hours in the dark. […] HTRF ration was calculated as follows: […]

A549 cells = experiment: Antiproliferation assay (MTS), A549; type: cell-based; conditions: Homo sapiens; A549, 72 hours of drug treatment
PC-3 cells = experiment: Antiproliferation assay (MTS), PC-3; type: cell-based; conditions: Homo sapiens, PC3, 72 hours of drug treatment
Method: (1) Antiproliferation Assay
PC-3, U-87 MG, HCC1954 and BT474 cell lines were purchased from the American Type Culture Collection (ATCC, USA). PC-3 was grown in F12K medium (GIBCO) containing 10% FBS. U-87 MG was grown in Eagle's minimum essential medium (MEM, Sigma) supplemented with nonessential amino acids, L-glutamine, sodium pyruvate, and 10% FBS. HCC1954 was grown in RPMI medium (GIBCO) containing 10% FBS. […] All cells were incubated in a humidified atmosphere containing 5% CO2 at 37° C.
Cell lines were inoculated to the wells of a 96-well culture plate with 1000-5000 cells per well. The compounds were prepared and used to treat cells with less than 1% DMSO. After 72 hours of drug treatment, the viability of each cell line was examined by CellTiter 96 Aqueous Non-Radioactive Cell Proliferation Assay (Promega). The living cells were detectable by conversion of MTS into aqueous, soluble formazan. MTS/PMS solution was freshly prepared and 20 μl of MTS/PMS solution was added to each well of the 96-well cultured plate. The assay plate was incubated for 3 hours and the absorbance at 490 nm was measured by EMax ELISA Reader (Molecular Devices). The IC50 values of compounds were determined after carrying out assays at eight serially diluted concentrations of each compound in triplicate, and are the mean of three separate determinations. The results were analyzed using linear regression software (GraphPad Prism 5; GraphPad Software Inc.).

p-Akt T308 (PI3K) = experiment: Immunoblotting, PI3K/Akt/mTOR signal transduction, p-Akt T308; type: cell-based; conditions: Homo sapiens; PC-3 cell
Excerpt: as §1

Chain of PI3K (p110β/p85α) (P42338 whole entry, species assumed): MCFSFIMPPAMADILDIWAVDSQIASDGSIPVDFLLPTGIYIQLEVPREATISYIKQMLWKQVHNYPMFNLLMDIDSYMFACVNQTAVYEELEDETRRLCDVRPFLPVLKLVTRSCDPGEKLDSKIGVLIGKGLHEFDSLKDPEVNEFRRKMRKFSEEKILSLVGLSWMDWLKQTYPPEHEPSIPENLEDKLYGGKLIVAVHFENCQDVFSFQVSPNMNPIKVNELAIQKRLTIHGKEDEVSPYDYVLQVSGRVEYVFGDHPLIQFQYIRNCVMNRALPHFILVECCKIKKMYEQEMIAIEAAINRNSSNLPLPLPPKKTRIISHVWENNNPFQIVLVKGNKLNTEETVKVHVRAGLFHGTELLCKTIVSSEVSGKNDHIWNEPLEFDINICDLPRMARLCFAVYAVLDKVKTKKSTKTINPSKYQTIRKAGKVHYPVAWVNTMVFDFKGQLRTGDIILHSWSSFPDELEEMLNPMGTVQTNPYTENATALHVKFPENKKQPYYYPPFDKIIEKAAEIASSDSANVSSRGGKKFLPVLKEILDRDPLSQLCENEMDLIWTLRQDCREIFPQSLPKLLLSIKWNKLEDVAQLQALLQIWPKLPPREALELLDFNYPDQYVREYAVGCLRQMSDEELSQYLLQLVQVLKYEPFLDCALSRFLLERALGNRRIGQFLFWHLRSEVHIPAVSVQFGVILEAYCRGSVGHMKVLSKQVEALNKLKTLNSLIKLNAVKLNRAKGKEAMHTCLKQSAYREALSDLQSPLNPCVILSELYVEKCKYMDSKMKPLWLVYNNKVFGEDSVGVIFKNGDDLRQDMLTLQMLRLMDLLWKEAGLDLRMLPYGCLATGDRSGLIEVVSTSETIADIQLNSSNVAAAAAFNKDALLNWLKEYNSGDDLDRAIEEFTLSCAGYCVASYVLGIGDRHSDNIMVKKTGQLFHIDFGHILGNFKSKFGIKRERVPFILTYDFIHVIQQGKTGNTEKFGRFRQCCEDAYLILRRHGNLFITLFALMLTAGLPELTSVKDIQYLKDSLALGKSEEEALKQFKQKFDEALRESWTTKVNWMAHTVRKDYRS
Chain of PI3K (p110β/p85α) (P27986 whole entry partner, species assumed): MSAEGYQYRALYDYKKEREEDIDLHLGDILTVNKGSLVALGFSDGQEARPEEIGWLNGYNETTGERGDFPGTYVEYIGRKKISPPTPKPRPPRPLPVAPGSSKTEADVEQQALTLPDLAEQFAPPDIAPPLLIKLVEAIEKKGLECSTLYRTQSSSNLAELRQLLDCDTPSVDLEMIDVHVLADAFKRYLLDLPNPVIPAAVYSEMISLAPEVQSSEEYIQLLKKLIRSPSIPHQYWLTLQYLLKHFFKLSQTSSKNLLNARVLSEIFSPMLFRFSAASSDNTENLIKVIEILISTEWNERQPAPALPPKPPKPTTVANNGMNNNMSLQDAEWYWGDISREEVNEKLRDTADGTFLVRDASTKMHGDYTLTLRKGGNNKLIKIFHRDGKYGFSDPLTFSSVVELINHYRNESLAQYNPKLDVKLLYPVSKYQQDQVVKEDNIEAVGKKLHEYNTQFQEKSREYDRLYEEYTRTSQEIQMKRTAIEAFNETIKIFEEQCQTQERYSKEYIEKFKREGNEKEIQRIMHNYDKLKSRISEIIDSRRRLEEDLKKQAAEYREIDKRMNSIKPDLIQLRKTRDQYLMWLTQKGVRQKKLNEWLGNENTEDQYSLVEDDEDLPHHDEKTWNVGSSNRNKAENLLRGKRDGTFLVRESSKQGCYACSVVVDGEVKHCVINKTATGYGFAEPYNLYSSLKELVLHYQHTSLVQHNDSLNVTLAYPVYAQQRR
Chain of PI3K (p110α/p85α) (P42336 whole entry, species assumed): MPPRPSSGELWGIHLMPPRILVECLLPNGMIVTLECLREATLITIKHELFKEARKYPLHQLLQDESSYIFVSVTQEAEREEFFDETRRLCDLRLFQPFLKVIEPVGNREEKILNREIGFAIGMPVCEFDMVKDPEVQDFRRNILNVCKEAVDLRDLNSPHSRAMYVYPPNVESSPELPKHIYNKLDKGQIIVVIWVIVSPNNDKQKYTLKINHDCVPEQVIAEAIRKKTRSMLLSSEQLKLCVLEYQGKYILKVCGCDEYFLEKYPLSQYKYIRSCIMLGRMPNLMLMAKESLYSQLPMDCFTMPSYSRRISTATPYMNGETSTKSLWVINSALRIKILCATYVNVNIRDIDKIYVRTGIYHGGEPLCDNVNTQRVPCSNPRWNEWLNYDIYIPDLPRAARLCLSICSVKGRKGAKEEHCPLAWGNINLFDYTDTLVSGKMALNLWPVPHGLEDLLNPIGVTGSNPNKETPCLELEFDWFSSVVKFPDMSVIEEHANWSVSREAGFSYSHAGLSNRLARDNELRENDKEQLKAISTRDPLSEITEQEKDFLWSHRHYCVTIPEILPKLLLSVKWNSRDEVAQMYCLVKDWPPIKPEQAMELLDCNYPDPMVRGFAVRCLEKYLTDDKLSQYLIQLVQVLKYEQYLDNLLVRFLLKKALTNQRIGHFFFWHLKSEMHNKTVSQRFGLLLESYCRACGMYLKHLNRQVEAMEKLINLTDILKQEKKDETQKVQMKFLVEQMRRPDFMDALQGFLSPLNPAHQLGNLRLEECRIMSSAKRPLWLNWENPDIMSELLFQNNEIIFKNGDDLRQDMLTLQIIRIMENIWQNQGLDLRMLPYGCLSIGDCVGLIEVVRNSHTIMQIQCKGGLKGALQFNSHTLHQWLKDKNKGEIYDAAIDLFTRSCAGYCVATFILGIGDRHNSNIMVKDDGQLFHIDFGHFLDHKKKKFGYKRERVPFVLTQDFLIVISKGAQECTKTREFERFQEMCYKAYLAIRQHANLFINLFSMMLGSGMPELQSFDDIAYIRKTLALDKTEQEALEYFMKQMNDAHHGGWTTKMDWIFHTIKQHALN
Chain of PI3K (p110α/p85α) (P27986 whole entry partner, species assumed): as the sequence (P27986 whole entry partner, species assumed) above
Chain of recombinant mTOR (P42345 1360-2549): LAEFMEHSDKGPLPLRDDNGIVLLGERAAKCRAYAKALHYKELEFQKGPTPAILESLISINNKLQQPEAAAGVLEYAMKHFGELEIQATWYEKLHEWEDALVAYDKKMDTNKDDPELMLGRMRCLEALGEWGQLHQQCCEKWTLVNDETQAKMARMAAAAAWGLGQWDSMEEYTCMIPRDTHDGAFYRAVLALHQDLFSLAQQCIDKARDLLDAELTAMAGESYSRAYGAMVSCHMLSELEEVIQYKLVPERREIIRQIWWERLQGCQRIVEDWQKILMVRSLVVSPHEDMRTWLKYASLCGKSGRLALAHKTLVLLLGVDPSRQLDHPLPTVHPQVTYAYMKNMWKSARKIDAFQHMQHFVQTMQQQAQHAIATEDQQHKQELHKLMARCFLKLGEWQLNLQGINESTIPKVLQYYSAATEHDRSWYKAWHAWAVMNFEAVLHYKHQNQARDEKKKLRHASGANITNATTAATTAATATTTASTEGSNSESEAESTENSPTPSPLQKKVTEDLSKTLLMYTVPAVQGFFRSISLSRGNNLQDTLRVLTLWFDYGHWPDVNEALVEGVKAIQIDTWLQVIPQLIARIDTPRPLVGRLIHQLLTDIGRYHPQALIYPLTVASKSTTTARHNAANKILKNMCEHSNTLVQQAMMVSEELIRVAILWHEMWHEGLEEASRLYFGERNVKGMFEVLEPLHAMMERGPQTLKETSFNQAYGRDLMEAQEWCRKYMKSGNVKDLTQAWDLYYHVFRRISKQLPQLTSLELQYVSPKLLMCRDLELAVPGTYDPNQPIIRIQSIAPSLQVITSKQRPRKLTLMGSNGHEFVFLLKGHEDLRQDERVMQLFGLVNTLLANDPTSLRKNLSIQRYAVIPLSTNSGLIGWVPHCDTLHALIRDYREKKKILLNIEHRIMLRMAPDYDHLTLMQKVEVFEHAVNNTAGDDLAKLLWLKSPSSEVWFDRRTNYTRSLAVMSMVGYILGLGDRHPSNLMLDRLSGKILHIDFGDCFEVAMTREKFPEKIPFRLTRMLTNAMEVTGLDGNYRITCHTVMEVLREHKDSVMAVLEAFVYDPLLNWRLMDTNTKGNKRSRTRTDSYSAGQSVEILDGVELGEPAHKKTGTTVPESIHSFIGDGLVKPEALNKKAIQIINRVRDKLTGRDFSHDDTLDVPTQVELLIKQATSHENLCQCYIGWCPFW

Cn1c(=O)n(-c2ccc(C(C)(C)C#N)cc2)c2c3cc(-c4cnc5ccccc5c4)ccc3ncc21 [BEZ-235]
IC50 (p-S6K (mTORC1)): < 0.01 µM
IC50 (p-Akt S473 (mTORC2)): 0.0289 µM

CS(=O)(=O)N1CCN(Cc2cc3nc(-c4cccc5[nH]ncc45)nc(N4CCOCC4)c3s2)CC1 [GDC-0941]
IC50 (p-S6K (mTORC1)): 0.451 µM
IC50 (p-Akt S473 (mTORC2)): 0.0115 µM

CSc1c(Cl)nc(-c2ccc(N)nc2)nc1N1CCOCC1 [MTR-0133, 5-(4-Chloro-5-methylsulfanyl-6-morpholin-4-yl-pyrimidin-2-yl)-pyridin-2-ylamine]
inhibition at 10 µM (recombinant mTOR): 93%
inhibition at 0.5 µM (PI3K (p110α/p85α)): 70%
inhibition at 0.5 µM (PI3K (p110β/p85α)): 4.5%

CSc1c(Cl)nc(-c2ccc(NC(=O)Nc3ccc(F)cc3)cc2)nc1N1CCOCC1 [MTR-0135, 1-[4-(4-Chloro-5-methylsulfanyl-6-morpholin-4-yl-pyrimidin-2-yl)-phenyl]-3-(4-fluoro-phenyl)-urea]
inhibition at 10 µM (recombinant mTOR): 90%
inhibition at 0.5 µM (PI3K (p110α/p85α)): 70.1%
inhibition at 0.5 µM (PI3K (p110β/p85α)): 14.2%

COc1cnc(-c2ccc(NC(=S)Nc3cccc(F)c3)cc2)nc1N1CCOCC1 [MTR-0168, 1-(3-Fluoro-phenyl)-3-[4-(5-methoxy-4-morpholin-4-yl-pyrimidin-2-yl)-phenyl]-thiourea]
inhibition at 10 µM (recombinant mTOR): 91%
inhibition at 0.5 µM (PI3K (p110α/p85α)): 65%
inhibition at 0.5 µM (PI3K (p110β/p85α)): 20.2%

CCOc1c(C(=O)N2CCOCC2)nc(-c2ccc(NC(=O)Nc3ccc(N4CCOCC4=O)cc3)cc2)nc1N1CCOCC1 [MTR-0280, 1-{4-[5-Ethoxy-4-(morpholine-4-carbonyl)-6-morpholin-4-yl-pyrimidin-2-yl]-phenyl}-3-[4-(3-oxo-morpholin-4-yl)-phenyl]-urea]
inhibition at 10 µM (recombinant mTOR): 95%
IC50 (A549 cells): 0.382 ± 0.023 µM
IC50 (PC-3 cells): 0.126 ± 0.008 µM

COc1cnc(-c2ccc(NC(=O)Nc3ccc(N)cc3)cc2)nc1N1CCOCC1 [MTR-0350, 1-(4-Amino-phenyl)-3-[4-(5-methoxy-4-morpholin-4-yl-pyrimidin-2-yl)-phenyl]-urea]
inhibition at 10 µM (recombinant mTOR): 95%
IC50 (A549 cells): 0.614 ± 0.028 µM
IC50 (PC-3 cells): 0.188 ± 0.006 µM

CSc1cnc(-c2ccc(NC(=O)Nc3cccc(NC(C)=O)c3)cc2)nc1N1CCOCC1 [MTR-0377, N-(3-{3-[4-(5-Methylsulfanyl-4-morpholin-4-yl-pyrimidin-2-yl)-phenyl]-ureido}-phenyl)-acetamide]
inhibition at 10 µM (recombinant mTOR): 97%
IC50 (A549 cells): 0.598 ± 0.018 µM
IC50 (PC-3 cells): 0.205 ± 0.006 µM

CCOc1cnc(-c2ccc(NC(=O)Nc3ccc(N4CCOCC4=O)cc3)cc2)nc1-c1ccncc1 [MTR-0398, 1-[4-(5-Ethoxy-4-pyridin-4-yl-pyrimidin-2-yl)-phenyl]-3-[4-(3-oxo-morpholin-4-yl)-phenyl]-urea]
inhibition at 10 µM (recombinant mTOR): 89%
inhibition at 0.5 µM (PI3K (p110α/p85α)): 47%
IC50 (A549 cells): 0.46 ± 0.028 µM
IC50 (PC-3 cells): 0.179 ± 0.014 µM

Oc1cccc(-c2nc(N3CCOCC3)c3oc4ncccc4c3n2)c1 [PI-103]
IC50 (p-S6K (mTORC1)): 0.0649 µM
IC50 (p-Akt S473 (mTORC2)): 0.0356 µM

CO[C@H]1C[C@@H]2CC[C@@H](C)[C@@](O)(O2)C(=O)C(=O)N2CCCC[C@H]2C(=O)O[C@H]([C@H](C)C[C@@H]2CC[C@@H](O)[C@H](OC)C2)CC(=O)[C@H](C)/C=C(\C)[C@@H](O)[C@@H](OC)C(=O)[C@H](C)C[C@H](C)/C=C/C=C/C=C/1C [Rapamycin, rapamycin, reference compound]
IC50 (p-S6K (mTORC1)): < 0.01 µM
IC50 (p-Akt S473 (mTORC2)): < 0.01 µM
IC50 (p-Akt T308 (PI3K)): > 1 µM
